Test results: patent US20250197382A1, “KIF18A INHIBITOR” (WIGEN BIOMEDICINE TECHNOLOGY (SHANGHAI) CO., LTD., priority 2022, published 2025)

biological target: Recombinant human KIF18A (1-467His-tagged) protein (Homo sapiens (Human), UniProt Q8NI77); assay: KIF18A enzyme assay (microtubule-stimulated ATPase activity, ADP-Glo); format: biochemical; settings: 30 nM KIF18A, ATP 75 μM, read-out: inhibitory activity against KIF18A IC50
How it was run: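 Baculovirus-expressed human KIF18A (1-467, His-tagged; 30 nM) preincubated 15 min at room temperature with compound (22-point 2-fold series) in pH 7.5 Tris buffer containing 30 μg/mL pig microtubules and 1 μM paclitaxel.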

Chain of Recombinant human KIF18A (1-467His-tagged) protein (Q8NI77 1-467): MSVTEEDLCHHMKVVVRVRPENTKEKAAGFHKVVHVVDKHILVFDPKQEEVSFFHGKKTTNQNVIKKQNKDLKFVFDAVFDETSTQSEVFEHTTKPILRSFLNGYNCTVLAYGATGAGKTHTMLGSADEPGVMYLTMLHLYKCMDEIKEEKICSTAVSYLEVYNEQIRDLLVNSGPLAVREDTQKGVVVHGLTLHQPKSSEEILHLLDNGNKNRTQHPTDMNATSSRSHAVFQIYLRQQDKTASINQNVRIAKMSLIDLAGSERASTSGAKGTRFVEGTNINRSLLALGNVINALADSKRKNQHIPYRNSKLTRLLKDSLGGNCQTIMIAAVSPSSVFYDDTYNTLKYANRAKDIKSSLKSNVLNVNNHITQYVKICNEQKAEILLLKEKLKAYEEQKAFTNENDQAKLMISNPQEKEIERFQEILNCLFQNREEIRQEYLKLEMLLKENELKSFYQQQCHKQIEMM
Chain of Recombinant human KIF18A (1-467His-tagged) protein (P02550 whole entry partner): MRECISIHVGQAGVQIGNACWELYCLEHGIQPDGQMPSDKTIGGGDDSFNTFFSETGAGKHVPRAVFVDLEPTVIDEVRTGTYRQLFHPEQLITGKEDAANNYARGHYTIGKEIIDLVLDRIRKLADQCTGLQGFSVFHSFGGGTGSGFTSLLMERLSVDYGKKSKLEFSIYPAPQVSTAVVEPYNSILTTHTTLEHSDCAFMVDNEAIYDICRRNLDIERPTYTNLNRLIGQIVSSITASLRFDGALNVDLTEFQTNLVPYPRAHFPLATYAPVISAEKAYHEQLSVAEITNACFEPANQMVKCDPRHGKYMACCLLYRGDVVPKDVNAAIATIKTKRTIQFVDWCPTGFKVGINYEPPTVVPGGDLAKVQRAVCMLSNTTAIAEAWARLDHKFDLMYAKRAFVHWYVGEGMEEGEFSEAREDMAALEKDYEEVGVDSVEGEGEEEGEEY
Chain of Recombinant human KIF18A (1-467His-tagged) protein (P02554 whole entry partner): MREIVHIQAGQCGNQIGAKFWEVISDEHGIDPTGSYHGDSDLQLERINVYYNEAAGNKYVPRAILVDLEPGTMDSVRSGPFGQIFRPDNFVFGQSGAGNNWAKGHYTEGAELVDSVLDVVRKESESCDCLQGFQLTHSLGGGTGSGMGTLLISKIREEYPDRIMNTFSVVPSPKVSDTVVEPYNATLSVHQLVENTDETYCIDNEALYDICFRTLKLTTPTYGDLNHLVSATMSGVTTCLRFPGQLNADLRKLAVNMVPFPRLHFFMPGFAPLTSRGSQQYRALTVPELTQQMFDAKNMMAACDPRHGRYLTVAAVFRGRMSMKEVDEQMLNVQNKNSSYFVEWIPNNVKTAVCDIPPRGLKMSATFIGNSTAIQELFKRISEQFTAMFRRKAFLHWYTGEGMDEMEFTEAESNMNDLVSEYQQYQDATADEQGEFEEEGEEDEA

IC50, ≤ 0.1 µM:
CC(C)(CO)Nc1cc(NC(=O)c2ccc(S(=O)(=O)NCCO)cc2N2CCC3(CC2)CC3)cc2ccoc12 [Compound 155]
O=C(Nc1cc(N2CCOCC2)c2occc2c1)c1ccc(S(=O)(=O)NCCO)cc1N1CCC2(CC1)CC2 [Compound 156]
C[C@@H](CO)NS(=O)(=O)c1ccc(C(=O)Nc2cc(N3CCC(F)(F)CC3)c3occc3c2)c(N2CCC3(CC2)CC3)c1 [Compound 157]
C[C@H](CO)NS(=O)(=O)c1ccc(C(=O)Nc2cc(N3CCC(F)(F)CC3)c3occc3c2)c(N2CCC3(CC2)CC3)c1 [Compound 158]
C[C@@H]1CN(c2cc(NC(=O)c3ccc(S(=O)(=O)N[C@@H](C)CO)cc3N3CCC4(CC3)CC4)cc3ccoc23)CCO1 [Compound 159]
C[C@H](CO)NS(=O)(=O)c1ccc(C(=O)Nc2cc(N3CCO[C@H](C)C3)c3occc3c2)c(N2CCC3(CC2)CC3)c1 [Compound 160]
O=C(Nc1ccc(NS(=O)(=O)CCO)cc1N1CCC2(CC1)CC2)c1cc(N2CCC(F)(F)CC2)c2occc2c1 [Compound 161]
C[C@@H]1CN(c2cc(C(=O)Nc3ccc(NS(=O)(=O)CCO)cc3N3CCC4(CC3)CC4)cc3ccoc23)CCO1 [Compound 162]
C[C@H]1CN(c2cc(C(=O)Nc3ccc(NS(=O)(=O)CCO)cc3N3CCC4(CC3)CC4)cc3ccoc23)CCO1 [Compound 163]
O=C(Nc1ccc(NS(=O)(=O)CCO)cc1N1CCC2(CC1)CC2)c1cc(N2CC(F)(F)C2)c2occc2c1 [Compound 164]
O=C(Nc1ccc(NS(=O)(=O)CCO)cc1N1CCC2(CC1)CC2)c1cc(OCCC(F)(F)F)c2occc2c1 [Compound 165]
O=C(Nc1ccc(NS(=O)(=O)CCO)cc1N1CCC2(CC1)CC2)c1cc(N2CCC3(CC3)C2)c2occc2c1 [Compound 166]
O=C(Nc1ccc(NS(=O)(=O)CCO)cc1N1CCC2(CC1)CC2)c1cc(OC2CCC2)c2occc2c1 [Compound 167]
CC1(F)CCN(c2cc(C(=O)Nc3ccc(NS(=O)(=O)CCO)cc3N3CCC4(CC3)CC4)cc3ccoc23)C1 (stereo not shown) [Compound 168]
O=C(Nc1ccc(NS(=O)(=O)CCO)cc1N1CCC2(CC1)CC2)c1cc(N2CCC(F)CC2)c2occc2c1 [Compound 169]
O=C(Nc1ccc(NS(=O)(=O)CCO)cc1N1CCC2(CC1)CC2)c1cc(N2CC3CC3C2)c2occc2c1 (stereo not shown) [Compound 170]
CC(C)(CO)Nc1cc(C(=O)Nc2ccc(NS(=O)(=O)CCO)cc2N2CCC3(CC2)CC3)cc2ccoc12 [Compound 171]
O=C(Nc1ccc(NS(=O)(=O)CCO)cc1N1CCC2(CC1)CC2)c1cc(N2CCOCC2)c2occc2c1 [Compound 172]
C[C@@H](CO)S(=O)(=O)Nc1ccc(NC(=O)c2cc(N3CCC(F)(F)CC3)c3occc3c2)c(N2CCC3(CC2)CC3)c1 [Compound 173]
C[C@H](CO)S(=O)(=O)Nc1ccc(NC(=O)c2cc(N3CCC(F)(F)CC3)c3occc3c2)c(N2CCC3(CC2)CC3)c1 [Compound 174]
C[C@@H]1CN(c2cc(C(=O)Nc3ccc(NS(=O)(=O)[C@@H](C)CO)cc3N3CCC4(CC3)CC4)cc3ccoc23)CCO1 [Compound 175]
C[C@@H]1CN(c2cc(C(=O)Nc3ccc(NS(=O)(=O)[C@H](C)CO)cc3N3CCC4(CC3)CC4)cc3ccoc23)CCO1 [Compound 176]
O=C(Nc1ccc(S(=O)(=O)NCCO)cc1N1CCC2(CC1)CC2)c1cc(N2CCC(F)(F)CC2)c2occc2c1 [Compound 177]
C[C@@H]1CN(c2cc(C(=O)Nc3ccc(S(=O)(=O)NCCO)cc3N3CCC4(CC3)CC4)cc3ccoc23)CCO1 [Compound 178]
C[C@H]1CN(c2cc(C(=O)Nc3ccc(S(=O)(=O)NCCO)cc3N3CCC4(CC3)CC4)cc3ccoc23)CCO1 [Compound 179]
O=C(Nc1ccc(S(=O)(=O)NCCO)cc1N1CCC2(CC1)CC2)c1cc(N2CC(F)(F)C2)c2occc2c1 [Compound 180]
O=C(Nc1ccc(S(=O)(=O)NCCO)cc1N1CCC2(CC1)CC2)c1cc(OCCC(F)(F)F)c2occc2c1 [Compound 181]
O=C(Nc1ccc(S(=O)(=O)NCCO)cc1N1CCC2(CC1)CC2)c1cc(N2CCC3(CC3)C2)c2occc2c1 [Compound 182]
O=C(Nc1ccc(S(=O)(=O)NCCO)cc1N1CCC2(CC1)CC2)c1cc(OC2CCC2)c2occc2c1 [Compound 183]
CC1(F)CCN(c2cc(C(=O)Nc3ccc(S(=O)(=O)NCCO)cc3N3CCC4(CC3)CC4)cc3ccoc23)C1 (stereo not shown) [Compound 184]
O=C(Nc1ccc(S(=O)(=O)NCCO)cc1N1CCC2(CC1)CC2)c1cc(N2CCC(F)CC2)c2occc2c1 [Compound 185]
O=C(Nc1ccc(S(=O)(=O)NCCO)cc1N1CCC2(CC1)CC2)c1cc(N2CC3CC3C2)c2occc2c1 (stereo not shown) [Compound 186]
CC(C)(CO)Nc1cc(C(=O)Nc2ccc(S(=O)(=O)NCCO)cc2N2CCC3(CC2)CC3)cc2ccoc12 [Compound 187]
O=C(Nc1ccc(S(=O)(=O)NCCO)cc1N1CCC2(CC1)CC2)c1cc(N2CCOCC2)c2occc2c1 [Compound 188]
C[C@@H](CO)NS(=O)(=O)c1ccc(NC(=O)c2cc(N3CCC(F)(F)CC3)c3occc3c2)c(N2CCC3(CC2)CC3)c1 [Compound 189]
C[C@H](CO)NS(=O)(=O)c1ccc(NC(=O)c2cc(N3CCC(F)(F)CC3)c3occc3c2)c(N2CCC3(CC2)CC3)c1 [Compound 190]
C[C@@H]1CN(c2cc(C(=O)Nc3ccc(S(=O)(=O)N[C@@H](C)CO)cc3N3CCC4(CC3)CC4)cc3ccoc23)CCO1 [Compound 191]
C[C@H](CO)NS(=O)(=O)c1ccc(NC(=O)c2cc(N3CCO[C@H](C)C3)c3occc3c2)c(N2CCC3(CC2)CC3)c1 [Compound 192]
O=C(Nc1cc2ccoc2c(N2CCC(F)(F)CC2)n1)c1ccc(NS(=O)(=O)CCO)cc1N1CCC2(CC1)CC2 [Compound 193]
C[C@@H]1CN(c2nc(NC(=O)c3ccc(NS(=O)(=O)CCO)cc3N3CCC4(CC3)CC4)cc3ccoc23)CCO1 [Compound 194]
C[C@H]1CN(c2nc(NC(=O)c3ccc(NS(=O)(=O)CCO)cc3N3CCC4(CC3)CC4)cc3ccoc23)CCO1 [Compound 195]
O=C(Nc1cc2ccoc2c(N2CC(F)(F)C2)n1)c1ccc(NS(=O)(=O)CCO)cc1N1CCC2(CC1)CC2 [Compound 196]
O=C(Nc1cc2ccoc2c(OCCC(F)(F)F)n1)c1ccc(NS(=O)(=O)CCO)cc1N1CCC2(CC1)CC2 [Compound 197]
O=C(Nc1cc2ccoc2c(N2CCC3(CC3)C2)n1)c1ccc(NS(=O)(=O)CCO)cc1N1CCC2(CC1)CC2 [Compound 198]
O=C(Nc1cc2ccoc2c(OC2CCC2)n1)c1ccc(NS(=O)(=O)CCO)cc1N1CCC2(CC1)CC2 [Compound 199]
CC1(F)CCN(c2nc(NC(=O)c3ccc(NS(=O)(=O)CCO)cc3N3CCC4(CC3)CC4)cc3ccoc23)C1 (stereo not shown) [Compound 200]
O=C(Nc1cc2ccoc2c(N2CCC(F)CC2)n1)c1ccc(NS(=O)(=O)CCO)cc1N1CCC2(CC1)CC2 [Compound 201]
O=C(Nc1cc2ccoc2c(N2CC3CC3C2)n1)c1ccc(NS(=O)(=O)CCO)cc1N1CCC2(CC1)CC2 (stereo not shown) [Compound 202]
CC(C)(CO)Nc1nc(NC(=O)c2ccc(NS(=O)(=O)CCO)cc2N2CCC3(CC2)CC3)cc2ccoc12 [Compound 203]
O=C(Nc1cc2ccoc2c(N2CCOCC2)n1)c1ccc(NS(=O)(=O)CCO)cc1N1CCC2(CC1)CC2 [Compound 204]
C[C@@H](CO)S(=O)(=O)Nc1ccc(C(=O)Nc2cc3ccoc3c(N3CCC(F)(F)CC3)n2)c(N2CCC3(CC2)CC3)c1 [Compound 205]
C[C@H](CO)S(=O)(=O)Nc1ccc(C(=O)Nc2cc3ccoc3c(N3CCC(F)(F)CC3)n2)c(N2CCC3(CC2)CC3)c1 [Compound 206]
C[C@@H]1CN(c2nc(NC(=O)c3ccc(NS(=O)(=O)[C@@H](C)CO)cc3N3CCC4(CC3)CC4)cc3ccoc23)CCO1 [Compound 207]
C[C@@H]1CN(c2nc(NC(=O)c3ccc(NS(=O)(=O)[C@H](C)CO)cc3N3CCC4(CC3)CC4)cc3ccoc23)CCO1 [Compound 208]
O=C(Nc1cc2ccoc2c(N2CCC(F)(F)CC2)n1)c1ccc(S(=O)(=O)NCCO)cc1N1CCC2(CC1)CC2 [Compound 209]
C[C@@H]1CN(c2nc(NC(=O)c3ccc(S(=O)(=O)NCCO)cc3N3CCC4(CC3)CC4)cc3ccoc23)CCO1 [Compound 210]
C[C@H]1CN(c2nc(NC(=O)c3ccc(S(=O)(=O)NCCO)cc3N3CCC4(CC3)CC4)cc3ccoc23)CCO1 [Compound 211]
O=C(Nc1cc2ccoc2c(N2CC(F)(F)C2)n1)c1ccc(S(=O)(=O)NCCO)cc1N1CCC2(CC1)CC2 [Compound 212]
O=C(Nc1cc2ccoc2c(N2CCC3(CC3)C2)n1)c1ccc(S(=O)(=O)NCCO)cc1N1CCC2(CC1)CC2 [Compound 214]
O=C(Nc1cc2ccoc2c(OC2CCC2)n1)c1ccc(S(=O)(=O)NCCO)cc1N1CCC2(CC1)CC2 [Compound 215]
CC1(F)CCN(c2nc(NC(=O)c3ccc(S(=O)(=O)NCCO)cc3N3CCC4(CC3)CC4)cc3ccoc23)C1 (stereo not shown) [Compound 216]
O=C(Nc1cc2ccoc2c(N2CCC(F)CC2)n1)c1ccc(S(=O)(=O)NCCO)cc1N1CCC2(CC1)CC2 [Compound 217]
CC(C)(CO)Nc1nc(NC(=O)c2ccc(S(=O)(=O)NCCO)cc2N2CCC3(CC2)CC3)cc2ccoc12 [Compound 219]
O=C(Nc1cc2ccoc2c(N2CCOCC2)n1)c1ccc(S(=O)(=O)NCCO)cc1N1CCC2(CC1)CC2 [Compound 220]
